For 25 compounds, IC50 and inhibition results are on record in patent EP1268431B1 (Wyeth, priority 2000, dated 2001).

Several values for one entry are separate records, joined by “and”; a condition that tells them apart may be missing. Equal entries are not always repeated.

The first experiment concerns the target T1, c-Src (Homo sapiens, UniProt P12931).
T1 construct: purchased Upstate Biotechnologies
The experiment can be described thus: c-Src Kinase Assay (ELISA format). It counts as biochemical.
Conditions: not given
Here is the method:
Inhibitors of Src (partially purified preparation purchased from Upstate Biotechnologies) tyrosine kinase activity are analyzed in an ELISA format. […] Horseradish Peroxidase (HRP)-conjugated anti-phosphotyrosine is used to detect phosphorylated peptide via a color reaction. Conditions recommended by the manufacturer are employed.
Reaction conditions: Five microliter aliquots of each compound prepared fresh at the time of the assay are added as a solution in 10mM HEPES pH 7.5, 10% DMSO to the reaction well. Thirty-five microliters of reaction mix containing Src, buffer and peptide/bovine serum albumin mix are added to the compound wells and incubated at 30°C for 10 minutes (reaction buffer: 50mM TrisHCl pH 7.5, 10mM MgCl2, 0.1mM EGTA, 0.5mM Na3VO4). The reaction is started by addition of 10 microliters of ATP, incubated at 30°C for 1 hour, and stopped by addition of 20 microliters of 0.5M EDTA. The reaction mixture with the phosphorylated peptide is then transferred to a streptavidin-coated microtiter plate (provided in the kit) and allowed to bind for 20 minutes. Unbound peptide and reaction mixture is decanted and the plate is washed with PBS six times. HRP-conjugated phosphotyrosine antibody supplied in the kit is incubated with the plate for one hour, then decanted. The plate is again washed with PBS six times.
Activity is determined as % inhibition as calculated by the formula: (1 - Abs/Abs(max)) x 100 = % inhibition.
“4-(2,4-Dichloro-5-methoxyanilino)-6-methoxy-7-(1H-pyrrol-1-yl)-3-quinolinecarbonitrile [Example 59]”: the 50% inhibitory concentration (IC50) is 12 nM and 15 nM. On the same count and under the same terms, with `COc1cc(Nc2c(C#N)cnc3cc(-c4ccc(CN5CCC(C(=O)O)CC5)cn4)ccc23)c(Cl)cc1Cl` [Example 177, 1-{6-[3-cyano-4-(2,4-dichloro-5-methoxyphenylamino)-quinolin-7yl]-pyridin-3-ylmethyl}-piperidine-4-carboxylic acid] the figure was 0.69 nM; with `COc1cc(Nc2c(C#N)cnc3cc(-c4csc(C=O)c4)ccc23)c(Cl)cc1Cl` [Example 43, 4-(2,4-Dichloro-5-methoxyanilino)-7-(5-formyl-3-thienyl)-3-quinolinecarbonitrile], 1.7 nM. As for `CCN1CCN(c2ccc(-c3ccc4c(Nc5cc(OC)c(Cl)cc5Cl)c(C#N)cnc4c3)cn2)CC1` [Example 197, 4-(2,4-dichloro-5-methoxyanilino)-7-[6-(4-ethyl-1-piperazinyl)-3-pyridinyl]-3-quinolinecarbonitrile], the IC50 worked out at 4.4 nM. On the same count and under the same terms, with `COc1cc(Nc2c(C#N)cnc3cc(-c4ccc(CN5CCOCC5)c(CN5CCOCC5)c4)ccc23)c(Cl)cc1Cl` [Example 34, 7-[3,4-Bis(4-morpholinylmethyl)phenyl]-4-(2,4-dichloro-5-methoxyanilino)-3-quinolinecarbonitrile] the figure was 3 nM. The same measure, in the same setting: the value for `CCN1CCN(Cc2ccc(-c3cc4ncc(C#N)c(Nc5cc(OC)c(Cl)cc5Cl)c4cc3OC)cc2)CC1` [Example 31, 4-(2,4-Dichloro-5-methoxyanilino)-7-{4-[(4-ethyl-1-piperazinyl)methyl]phenyl}-6-methoxy-3-quinolinecarbonitrile] was 8.3 nM and 5.6 nM; that for `COc1cc(Nc2c(C#N)cnc3cc(-c4ccc(N5CCN(C)CC5)nc4)ccc23)c(Cl)cc1Cl` [Example 198, 4-(2,4-dichloro-5-methoxyanilino)-7-[6-(4-methyl-1-piperazinyl)-3-pyridinyl]-3-quinolinecarbonitrile] was 1.9 nM; that for `COc1cc(Nc2c(C#N)cnc3ccc(-c4csc(CN5CCOCC5)c4)cc23)c(Cl)cc1Cl` [Example 50, 4-(2.4-Dichloro-5-methoxyanilino)-6-[5-(4-morpholinylmethyl)-3-thienyl]3-quinolinecarbonitrile] was 111 nM. In the case of `COc1cc(Nc2c(C#N)cnc3ccc(-c4csc(C=O)c4)cc23)c(Cl)cc1Cl` [Example 45, 4-(2,4-Dichloro-5-methoxyanilino)-6-(5-formyl-3-thienyl)-3-quinolinecarbonitrile], it took 51 nM to reach half-maximal inhibition (IC50). Same read-out and setting: with `COc1cc(Nc2c(C#N)cnc3cc(-c4cnc(CN5CCOCC5)n4C)ccc23)c(Cl)cc1Cl` [Example 226, 4-(2,4-dichloro-5-methoxyanilino)-7-[1-methyl-2-(4-morpholinylmethyl)-1H-imidazol-5-yl]-3-quinolinecarbonitrile] the figure was 31 nM. Still for that read-out and setting: with `N#Cc1cnc2cc(-c3ccc(-c4ccccn4)s3)ccc2c1Nc1ccc(Cl)cc1Cl` [Example 18, 4-(2,4-Dichloroanilino)-7-[5-(2-pyridinyl)-2-thienyl]-3-quinolinecarbonitrile] the figure was 180 nM; with `COc1cc(Nc2c(C#N)cnc3cc(-c4ccc(CCN5CCOCC5)cc4)c(OC)cc23)c(Cl)cc1Cl` [Example 40, 4-(2,4-Dichloro-5-methoxyanilino)-6-methoxy-7-{4-[2-(4-morpholinyl)ethyl]phenyl}-3-quinolinecarbonitrile], 10 nM; with `COc1cc(Nc2c(C#N)cnc3cc(-c4cccc(CN5CCOCC5)c4)ccc23)c(Cl)cc1Cl` [Example 26, 4-(2.4-Dichloro-5-methoxyanilino)-7-[3-(4-morpholinylmethyl)phenyl]-3-quinolinecarbonitrile], 24 nM. The same measure, in the same setting: the value for `COc1cc(Nc2c(C#N)cnc3cc(-c4csc(C5OCCO5)c4)ccc23)c(Cl)cc1Cl` [Example 42, 4-(2,4-Dichloro-5-methoxyanilino)-7-[5-(1,3-dioxolan-2-yl)-3-thienyl]-3-quinolinecarbonitrile] was 2.7 nM; that for `CCN1CCN(Cc2ccc(-c3ccc4c(Nc5cc(OC)c(Cl)cc5Cl)c(C#N)cnc4c3)cc2)CC1` [Example 30, 4-(2,4-Dichloro-5-methoxyanilino)-7-{4-[(4-ethyl-1-piperazinyl)methyl]phenyl}-3-quinolinecarbonitrile] was 4.4 nM and 1.5 nM; that for `COc1cc(Nc2c(C#N)cnc3cc(-c4cccc(CN5CCOCC5)c4)c(OC)cc23)c(Cl)cc1Cl` [Example 39, 4-(2,4-Dichloro-5-methoxyanilino)-6-methoxy-7-[3-(4-morpholinylmethyl]phenyl}-3-quinolinecarbonitrile] was 220 nM. Regarding `COc1cc(Nc2c(C#N)cnc3cc(-c4cnc(C=O)n4C)ccc23)c(Cl)cc1Cl` [Example 96, 4-(2,4-Dichloro-5-methoxyanilino)-7-(2-formyl-1-methyl-1H-imidazol-5-yl)-3-quinolinecarbonitrile], the 50% inhibitory concentration (IC50) came out at 240 nM.

For the compound `N#Cc1cnc2cc(-c3csc(C=O)c3)ccc2c1Nc1ccc(Cl)cc1Cl` [Example 44, 4-(2,4-Dichloroanilino)-7-(5-formyl-3-thienyl)-3-quinolinecarbonitrile], the IC50 came out at 25 nM. The same measure, in the same setting: with `COc1cc(Nc2c(C#N)cnc3cc(-c4cnc(CN5CCN(C)CC5)n4C)ccc23)c(Cl)cc1Cl` [Example 227, 4-(2,4-dichloro-5-methoxyanilino)-7-{1-methyl-2-[(4-methyl-1-piperazinyl)methyl]-1H-imidazol-5-yl}-3-quinolinecarbonitrile] the figure was 25 nM; with `COc1cc(Nc2c(C#N)cnc3cc(-c4cnc(CN5CCN(C)CC5)n4C)c(OC)cc23)c(Cl)cc1Cl` [Example 233, 4-(2,4-dichloro-5-methoxyanilino)-6-methoxy-7-{1-methyl-2-[(4-methyl-1-piperazinyl)methyl]-1H-imidazol-5-yl}-3-quinolinecarbonitrile], 28 nM; with `COc1cc(Nc2c(C#N)cnc3cc(-c4ccc(CN5CC[S+]([O-])CC5)cc4)ccc23)c(Cl)cc1Cl` [Example 151, 4-[(2,4-dichloro-5-methoxyphenyl)amino]-7-{4-[(1-oxido-4-thiomorpholinyl)methyl]phenyl}-3-quinolinecarbonitrile], 4.7 nM. The same measure, in the same setting: the value for `COc1cc(Nc2c(C#N)cnc3cc(-c4ccc(N5CCOCC5)nc4)ccc23)c(Cl)cc1Cl` [Example 185, 4-(2,4-dichloro-5-methoxyanilino)-7-[6-(4-morpholinyl)-3-pyridinyl]-3-quinolinecarbonitrile] was 3.4 nM; that for `COc1cc(Nc2c(C#N)cnc3cc(-c4ccc(/C=C/CN5CCOCC5)s4)ccc23)c(Cl)cc1Cl` [Example 21, 4-(2,4-Dichloro-5-methoxyanilino)-7-{5-[(E)-3-(4-morpholinyl)-1-propenyl]-2-thienyl}-3-quinolinecarbonitrile] was 40 nM and 9 nM; that for `COc1cc(Nc2c(C#N)cnc3cc(-c4cc(CN5CCOCC5)cs4)ccc23)c(Cl)cc1Cl` [Example 68, 4-(2,4-Dichloro-5-methoxyanilino)-7-[4-(4-morpholinylmethyl)-2-thienyl]-3-quinolinecarbonitrile] was 1.5 nM.

The experiment is the same for the next values; noted with them: at 1 µM.
`N#Cc1cnc2cc(C#CCO)ccc2c1Nc1ccc(Cl)cc1Cl` [Example 14, 4-(2,4-Dichloroanilino)-7-(3-hydroxy-1-propynyl)-3-quinolinecarbonitrile]: at 1 µM the inhibition was 40%.
